Measured values reported in patent US10988465B2, “CXCR4 inhibitors and uses thereof” (X4 Pharmaceuticals, Inc., priority 2016, dated 2021).

Columns and labels:
[1] = Rat brain uptake assay: pharmacokinetics and brain penetration after IV-PO administration; type: in vivo, male SD rats
[2] = Mouse brain uptake assay (MBUA), 3 mg/kg IV, 0-1 h, 3 time points; type: in vivo, male CD1 mice; settings: for clearance / half-life: CD1, plasma, 3 time points; for half-life: read-out: t½ (converted)
Experimental: Example 38: Pharmacokinetics and Brain Penetration Experiment to Determine Brain and Plasma Concentrations of Compounds after IV Administration to Male CD1 Mice
The study design (9 animals) consisted of administrating the drug (IV: 3 mg/kg (5 mL/kg) via tail vein injection) and collecting samples at terminal bleeding for plasma and brain at 0.083, 0.5 and 1 h. The IV dosing solution was prepared in 50 mM citrate buffer (pH 4.0) at 0.6 mg/mL. The blood collection was performed as follows: the animal was restrained manually and approximately 150 μL blood/time point was collected into a dipotassium EDTA tube via retro orbital puncture under anesthesia with isoflurane. The blood sample was put on ice and centrifuged to obtain a plasma sample (2000 g, 5 min under 4° C.) within 15 minutes. The brain collection was performed as follows: a mid-line incision was made in the animal's scalp and the skin was retracted. Using small bone cutters and rongeurs, the skull overlying the brain was removed. The brain was removed using a spatula and the brain rinsed with cold saline. The brain was placed in screw-top tubes, and the tubes were stored at −70° C. until analysis.
An aliquot of 30 μL sample was added to 150 μL MeCN containing 50 ng/mL IS (Dexamethasone). The mixture was vortexed for 5 min and centrifuged at 14,000 rpm for 5 min. An aliquot of 5 μL supernatant was injected for LC-MS/MS analysis.
An aliquot of 30 μL brain homogenate (brain:PBS=1:3, w/v) sample was added to 150 μL IS in MeCN (Dexamethasone, 50 ng/mL). The mixture was vortexed for 5 min and centrifuged at 14,000 rpm for 5 min. An aliquot of 5 μL supernatant was injected for LC-MS/MS analysis.
The sample analysis was performed on LCMS/MS-003 (API4000, triple quadruple) under the following conditions: positive ion, ESI, MRM detection using dexamethasone as internal standard. HPLC conditions: mobile phase A: H2O (0.025% formic acid (FA) with 1 mM NH4OAc); mobile phase B: MeOH (0.025% FA with 1 mM NH4OAc) on Waters X-Bridge C18 (2.1×50 mm, 2.5 μm) column at 60° C.

[3] = Rat brain uptake assay: pharmacokinetics and brain penetration after IV-PO administration; type: in vivo, male SD rats; settings: male, SD; for clearance / AUC(0-t) / bioavailability / half-life: Rat (3 mg/kg IV; 10 mg/kg, PO); for bioavailability: read-out: F % (oral bioavailability); for half-life: read-out: t½ (converted)
Experimental: Example 39: Pharmacokinetics and Brain Penetration Experiment to Determine Brain and Plasma Concentration of Compounds after IV-PO Administration to Male SD Rats
The IV and PO dosing solutions were prepared in 50 mM citrate buffer (pH 4.0) at 2 mg/mL. The blood collection was performed as follows: the animal was restrained manually at the designated time points, approximately 150 μL of blood sample was collected via cardiac puncture vein into EDTA-2K tubes. The blood samples were maintained in wet ice first and centrifuged to obtain plasma (2000 g, 4° C., 5 min) within 15 minutes post sampling. The brain collection was performed as follows: a mid-line incision was made in the animal's scalp and the skin was retracted. Using small bone cutters and rongeurs, the skull overlying the brain was removed. The brain was removed using a spatula and rinsed with cold saline. The brain was placed in screw-top tubes and then stored under −70° C. until analysis. The CSF collection was performed as follows: the animal was euthanized under deep anesthesia with air bubble tail vein injection. The CSF was collected by direct puncture of butterfly needle into the cisterna magna, using the occipital bone and the wings of the atlas as landmarks. A piece of white paper was used as a background to monitor color change in the sample just above the needle during collection. Upon observation of color change, the PE tubing was quickly clamped off above the color change and cut just above the clamped site. The clear sample was drawn into the syringe.
An aliquot of 30 μL sample was added to 100 μL MeCN containing 100 ng/mL IS (Dexamethasone). The mixture was vortexed for 10 min and centrifuged at 5800 rpm for 10 min. An aliquot of 40 μL supernatant was added with 40 μl H2O and the mixture was vortexed for 5 min. An aliquot of 2 μL supernatant was injected for LC-MS/MS analysis.
The sample was homogenized with 3 volumes (v/w) of PBS. An aliquot of 30 μL sample was added with 100 μL MeCN containing 100 ng/mL IS (Dexamethasone). The mixture was vortexed for 10 min and centrifuged at 5800 rpm for 10 min. An aliquot of 40 μL supernatant was added with 40 μl H2O and the mixture was vortexed for 5 min. An aliquot of 2 μL supernatant was injected for LC-MS/MS analysis.
An aliquot of 10 μL sample was added to 10 μL MeOH/H2O (1/1) and 40 μL ACN containing 200 ng/mL IS (Dexamethasone) 120 μL H2O. The mixture was vortexed for 5 min. An aliquot of 2 μL supernatant was injected for LC-MS/MS analysis.
The sample analysis was performed on UPLC-MS/MS-02 (Triple Quad™ 4000) under the following conditions: positive ion, ESI, MRM detection using dexamethasone as internal standard. HPLC conditions: mobile phase A: H2O-0.1% FA, mobile phase B: MeCN-0.1% FA on ACQUITY UPLC HSS T3 (2.1×50 mm, 1.8 μm) column at 60° C. In Table 11, F % means means oral bioavailability (the total number for protein bound and free fraction).

[4] = brain (brain proteins), read-out: Fu (b) % (fraction of drug unbound to brain proteins)
[5] = plasma, read-out: Fu (p) % (fraction of drug unbound to plasma proteins)
[6] = male, CD1, brain, mouse, 3 mg/kg IV, 0-1 h, read-out: AUClast (b)
[7] = male, CD1, plasma, mouse, 3 mg/kg IV, 0-1 h, read-out: AUClast (P)

Row | Kp ([2]; male, CD1, mouse, brain/plasma, iv, 3 mg/kg) | Kp uu ([2]; male, CD1, unbound brain/unbound plasma, mouse, 3 mg/kg IV, 0-1 h, read-out: Kp, uu) | fraction unbound ([2]; mouse, fraction unbound to brain proteins, read-out: Fu (b) %) | fraction unbound ([2]; mouse, fraction unbound to plasma proteins, read-out: Fu (p) %) | Kp uu ([3]; brain/plasma (unbound), Fu (b)*AUC last (b)/Fu (p)*AUC last (p), Rat, read-out: Kp, uu (unbound brain/unbound plasma drug concentration ratio)) | Kp ([3]; brain/plasma, AUC last(b)/AUC last(p), Rat, read-out: Kp (brain/plasma drug concentration ratio)) | Structure (SMILES) | fraction unbound [1, 4] | fraction unbound [1, 5] | clearance ([2]; male, mouse, 3 mg/kg IV, 0-1 h) [mL/min/kg] | half-life ([2]; male, mouse, 3 mg/kg IV, 0-1 h) [h] | AUC(0-t) [2, 6] [ng·h/mL] | AUC(0-t) [2, 7] [ng·h/mL] | clearance ([3]; plasma) [mL/min/kg] | AUC(0-t) ([3]; plasma, read-out: AUClast (P)) [ng·h/mL] | bioavailability ([3]; plasma) [%] | half-life ([3]; plasma) [h] | AUC(0-t) ([3]; brain, read-out: AUClast (b)) [ng·h/mL]
1 | – | – | – | – | – | – | Cc1cccnc1[C@@H]1CCC[C@H](c2nc3cccc(N4CCN(C)CC4)c3[nH]2)N1C (racemic) [I-3, 2-((2R,6S)-1-methyl-6-(3-methylpyridin-2-yl)piperidin-2-yl)-7-(4-methylpiperazin-1-yl)-1H-benzo[d]imidazole] | 0.014 | 0.101 | 115 | 0.3 | 180 | 268 | 123 | 503 | 37.6 | 2.1 | 1520
2 | 1.23 | 0.33 | 0.035 | 0.127 | 0.2 | 1.22 | CN1CCN(c2cccc3nc([C@H]4CCC[C@@H](c5ncccc5Cl)N4)[nH]c23)CC1 (racemic) [I-122] | 0.041 | 0.251 | 119 | 0.402 | 418 | 341 | 31.7 | 5440 | 74.6 | 5.31 | 6650
